Test results: PubChem BioAssay (NCI)
Where “and” joins values, the source holds several entries; their conditions need not be identical. Identical values can stand only once.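 Results reflect a 48-hour exposure of cells in 96-well plates to compound at five concentrations. GI50 is the concentration that inhibits growth by half. Definition used: TGI = concentration required for complete inhibition of growth.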

Assays:
Assay in all cases: inhibition of tumour cell growth, NCI panel, 48 h
SNB-75 CNS = system: SNB-75 CNS
IGROV1 ovarian = system: IGROV1 ovarian
SNB-19 CNS = system: SNB-19 CNS
SF-539 CNS = system: SF-539 CNS
DMS 114 small cell lung = system: DMS 114 small cell lung
TK-10 renal = system: TK-10 renal
HCT-116 colon = system: HCT-116 colon
XF 498 CNS = system: XF 498 CNS
HS 578T breast = system: HS 578T breast
PC-3 prostate = system: PC-3 prostate

SMILES | TGI (SNB-75 CNS) [µM] | TGI (IGROV1 ovarian) | TGI (SNB-19 CNS) [µM] | TGI (SF-539 CNS) [µM] | TGI (DMS 114 small cell lung) | TGI (TK-10 renal) [µM] | TGI (HCT-116 colon) | TGI (XF 498 CNS) [µM] | GI50 (HCT-116 colon) | GI50 (SNB-75 CNS) [µM] | GI50 (IGROV1 ovarian) | GI50 (SNB-19 CNS) [µM] | GI50 (SF-539 CNS) | GI50 (HS 578T breast) [µM] | TGI (HS 578T breast) [µM] | GI50 (PC-3 prostate) [µM] | TGI (PC-3 prostate) [µM] | GI50 (TK-10 renal) [µM] | GI50 (DMS 114 small cell lung) | GI50 (XF 498 CNS) [µM]
Cc1cc(N(CCC#N)CCC#N)ccc1N=Nc1cc(Cl)ccc1Cl | 28.3 | 28.6 µM | 35.9 | 19.4 | 22.9 µM | 23.8 |  |  |  |  |  |  |  |  |  |  |  |  |  | 
C/C(=N\NC(N)=S)c1ccc(C)c(C)c1 | > 100 | > 100 µM |  | > 100 | 38.3 µM | > 100 | > 100 µM | 48.1 |  |  |  |  |  |  |  |  |  |  |  | 
O=c1c2cc(Br)cc(Br)c2nc(CCCl)n1-c1ccc(O)c([N+](=O)[O-])c1 | 39.2 | 40.4 µM | 38.2 | 37.1 | 36.3 µM | 32.7 | 28.1 µM |  |  |  |  |  |  |  |  |  |  |  |  | 
CCOC(=O)C1C=C2O[C@@H]3OC4(CCCCC4)O[C@@H]3C2C2C(=O)CCC(=O)[C@@]12C(=O)OC (stereo partly specified) | > 100 | > 100 µM | > 100 |  | > 100 µM |  | > 100 µM | > 100 |  |  |  |  |  |  |  |  |  |  |  | 
CCCCCCCCCCCCCCCCCCNCc1ccc(Cl)cc1 | 27.3 | 5.24 µM | 12 | 29.4 |  | 9.03 | 11.7 µM |  | 3.03 µM | 9.15 | 1.91 µM | 3.31 | 12.1 µM | 7.97 | 30.4 | 1.94 | 3.96 | 2.3 |  | 
Cc1cc(C(=O)Nc2n[nH]c3ccccc23)n[nH]1 | > 100 | > 100 µM | > 100 | > 100 |  | > 100 | > 100 µM |  | > 100 µM | 62.6 | 32.7 µM | > 100 | > 100 µM | > 100 | > 100 | > 100 | > 100 | > 100 |  | 
C[C@]12CC[C@@H]3c4ccc(O)cc4CC[C@H]3[C@@H]1CC[C@@H]2NS(=O)(=O)c1ccc(Br)cc1 | 9.15 | 12.1 µM | 16.9 | 3.92 |  | 12.2 | 5.16 µM |  | 2.29 µM | 2.1 | 3.85 µM | 3.94 | 2.04 µM | 2.05 | 6.15 | 2.6 | 13.8 | 3.84 |  | 
C[C@H]1C/C=C/[C@H]2[C@@H]3O[C@]3(C)[C@@H](C)[C@H]3[C@H](Cc4ccccc4)NC(=O)[C@]32OC(=O)O/C=C/[C@@](C)(O)C1=O |  | > 33.5 µM and 125 µM and > 250 µM |  |  | 9.99 µM and 20.2 µM and 33.3 µM |  | 6.75 µM and 16.3 µM and 33.6 µM |  | 0.0578 µM and 0.0207 µM and 0.0301 µM | 0.025 | 0.0703 µM and 0.0723 µM and 0.025 µM | 0.0174 | 0.0125 µM and 0.025 µM |  |  |  |  |  | 0.0706 µM and 0.025 µM | < 0.025
CCc1cccc(C(C)C)c1NC(=O)CCl | > 100 | > 100 µM | > 100 | > 100 |  | > 100 | > 100 µM | > 100 |  |  |  |  |  |  |  |  |  |  |  | 
O=C(O)c1cc2ccccc2c2c3c(ccc12)OCO3 | 265 | 738 µM | 849 | 337 |  | 616 | > 1000 µM |  | 262 µM | 77.8 | 201 µM | 152 | 132 µM | 129 | 522 | 166 | 559 | 231 |  | 
C/C(=N\NC(=O)C[N+](C)(C)C)c1sc(-c2cccnc2)nc1C | > 100 | > 100 µM |  | > 100 | > 100 µM | > 100 | > 100 µM | > 100 |  |  |  |  |  |  |  |  |  |  |  | 
N#Cc1ccc(-c2c(-c3ncn[nH]3)sc(N3CCOCC3)c2C#N)c(F)c1 | 0.771 | 0.948 µM | 38.9 | 4.53 |  | 7.11 | 37.6 µM |  | 0.553 µM | 0.0736 | 0.181 µM | 1.96 | 0.571 µM | 0.381 | 4.85 | 0.345 | 20.3 | 0.316 |  | 
Cc1coc2c1C(=O)C(=O)c1ccccc1-2 | 3.15 | 3.44 µM |  | 2.88 | 0.326 µM | 3.3 | 0.879 µM |  |  |  |  |  |  |  |  |  |  |  |  | 
C/C=C/C/C=C/[C@H](C)C[C@H](O)[C@@H]1C[C@@H]2O[C@H]2/C=C/[C@@H]2OC(C)(C)O[C@H]2/C=C/C[C@H](C)CC(=O)O1 | > 100 | > 100 µM | > 100 | > 100 |  | > 100 | > 100 µM |  | 8.85 µM | 24.6 | 10.5 µM | 21.7 | 26.3 µM | 5.22 | > 100 | 5.75 | > 100 | 51.8 |  | 
S=c1o[nH]c(-c2ccccc2)c1C=Nc1ccccc1 | > 100 | > 100 µM | > 100 | > 100 | > 100 µM | > 100 |  | > 100 |  |  |  |  |  |  |  |  |  |  |  | 
COc1cc(-n2cc(-c3ccccc3)[nH]c2=O)cc(OC)c1OC | 34 | > 100 µM | > 100 | 63.8 |  | > 100 | > 100 µM |  | 58.1 µM | 13.9 | > 100 µM | 30.9 | 21.5 µM | 29.8 | 85.4 | 40 | > 100 | 39.6 |  | 
Cn1c(=O)nc2n(-c3ccc(Cl)cc3)c(-c3ccccc3)c(-c3ccccc3)nc-2c1=O | > 100 | > 100 µM | > 100 | 71.5 | > 100 µM | > 100 |  | 42.2 |  |  |  |  |  |  |  |  |  |  |  | 
O=c1c2ccccc2[nH]c2c(O)ccc(O)c12 |  | 35.3 µM | > 100 | 75.3 | 42.5 µM | 52.6 | 37.9 µM | 30.9 |  |  |  |  |  |  |  |  |  |  |  | 
Nc1ccccc1C#C/C=C\C#CC#C/C=C\C#Cc1ccccc1N | 22 | 17.9 µM | 64.8 | 16.6 |  | > 100 | 15.9 µM |  | 3.84 µM | 3.27 | 2.21 µM | 16.2 | 3.96 µM | 12.4 | 56.7 | 2.59 | 16.5 | 15.3 |  | 
O=[N+]([O-])c1cccc(-c2nc(-c3ccc(Cl)cc3Cl)cn2-c2ccccc2)c1 | 1.34 | 3.86 µM | > 18.2 | 4.33 |  | 1.13 | 2.02 µM |  | 0.855 µM | 0.509 | 1.2 µM | 2.55 | 1.02 µM | 0.428 | 1.15 | 0.391 | 10.8 | 0.612 |  | 
